From ChEMBL document CHEMBL1772986, “Scaffold-hopping strategy: synthesis and biological evaluation of 5,6-fused bicyclic heteroaromatics to identify orally bioavailable anticancer agents” (J Med Chem, 2011) come the findings set out here.

Molecules are shown by their SMILES. pIC50: −log10 of the molar value. Values after ≈ are worked out from the molar mass of the structure shown. Active and inactive are the calls of the source. No cut-off for these calls is given here.

Series [1] can be described thus: Inhibition of tubulin polymerization measured every 30 seconds for 30 mins.
The nature of series [2]: Half life in Sprague-Dawley rat plasma at 20 mg/kg, po. It counts as ADME, organism-based. More on the design: dose 20 mg/kg, route oral.
Series [3] can be described thus: Cmax in Sprague-Dawley rat at 20 mg/kg, po. Format: ADME, organism-based. Also on record: dose 20 mg/kg, route oral. Particulars: in vivo.
In series [4] the test system is Rattus norvegicus. Nature of the series: Half life in Sprague-Dawley rat plasma at 5 mg/kg, iv. Particulars: in vivo. Also on record: dose 5 mg/kg, route intravenous. Format: ADME, organism-based.
Series [5] can be described thus: AUC in Sprague-Dawley rat at 20 mg/kg, po. Format: ADME, organism-based. More on the design: dose 20 mg/kg, route oral. Particulars: plasma.
The test system of series [6] is Rattus norvegicus. Briefly: Volume of distribution at steady state in Sprague-Dawley rat at 5 mg/kg, iv. Format: ADME, organism-based. More on the design: dose 5 mg/kg, route intravenous. Particulars: in vivo.
Series [7] deals with Rattus norvegicus. Nature of the series: AUC in Sprague-Dawley rat at 5 mg/kg, iv. Format: ADME, organism-based, Plasma. Also on record: dose 5 mg/kg, route intravenous. Particulars: in vivo.
The nature of series [8]: Tmax in Sprague-Dawley rat at 20 mg/kg, po. Format: ADME, organism-based. More on the design: dose 20 mg/kg, route oral. As to conditions: in vivo.
A short description of series [9]: Solubility of the compound in phosphate buffer at 2 mg at pH 7.4 after 24 hrs. Format: physicochemical.
Series [10] can be described thus: Aqueous solubility in distilled water at 2 mg after 24 hrs. Format: physicochemical.
A short description of series [11]: Oral bioavailability in Sprague-Dawley rat at 20 mg/kg. As to conditions: in vivo. It counts as ADME, organism-based.
Series [12] can be described thus: Metabolic stability in human liver microsomes assessed as compound remaining at 1 uM after 30 mins. It counts as ADME, Microsome. Particulars: read-out: Stability. In general terms: Liver microsomes are vesicles of endoplasmic reticulum, rich in cytochrome P450 enzymes.
The next series deals with MKN-45. Nature of the series: Cytotoxicity against human MKN45 cells after 72 hrs by methylene blue dye assay. It counts as functional, cell-based. As to conditions: MKN-45, 72 h.
Another series deals with KB. Briefly: Cytotoxicity against human KB cells after 72 hrs by methylene blue dye assay. It counts as functional, cell-based.

Take `COc1cc(C(=O)c2c[nH]c3nc(C)ccc23)cc(OC)c1OC` [listing 1 of 2 here]: the inhibition entry in series [1] was “Active”.

As for `COc1cc(C(=O)c2c[nH]c3nc(C)ccc23)cc(OC)c1OC` [listing 2 of 2 here], the half-life (in general, the time in which the quantity being followed falls by half) in [2] is 1.3 h. The concentration in series [3] peaked (Cmax) at 3750 ng/mL. The compound further registered a t1/2 in the series on Rattus norvegicus [4] of 0.4 h. Besides, the AUC – broadly, concentration integrated over time – was determined as 4640 ng·h/mL in [5] and 2653 ng·h/mL with Rattus norvegicus [7]. The Vdss (usually the apparent volume that relates the amount in the body to the concentration in plasma or blood) with Rattus norvegicus [6] stood at 0.7 L/kg. Besides, in [8], the Tmax (as a rule, the time at which the peak concentration occurs) worked out at 0.5 h. Besides, the solubility (as a rule, how much of the substance goes into solution per volume) at 24 h in [9] stood at 8.3 µg/mL (≈ 25.4 µM); in [10], 14.3 µg/mL (≈ 43.8 µM). In addition, the bioavailability (as a rule, dose-corrected exposure relative to a reference, in per cent) in series [11] turned out to be 35%.

On to `CCOc1ccc2c(C(=O)c3cc(OC)c(OC)c(OC)c3)c[nH]c2n1`, for which the remaining at 0.5 h, 1 µM in [12] stood at 96.4%. Further, the inhibition result in series [1] is “Active”. The pIC50 (commonly the IC50 on a negative log10 scale, so that one unit is a factor of ten) in the series on MKN-45 was 7.85; in the series with KB it was 7.92. In addition, the solubility at 24 h in [9] is below 1 µg/mL; in [10], below 2 µg/mL.

Turning to `COc1ccc2c(C(=O)c3cc(OC)c(OC)c(OC)c3)n[nH]c2c1`, the pIC50 is 7.02 with MKN-45 and 7.15 in the series with KB.

Regarding `COc1ccc2c(C(=O)c3cc(OC)c(OC)c(OC)c3)c(C)cn2c1`, the remaining at 0.5 h, 1 µM in series [12] was found to be 35.4%. In addition, the inhibition entry in [1] was “Active”. For the same compound, the pIC50 in the series on MKN-45 is 7.59; in the series on KB, 7.51.

Turning to `COc1ccc2c(C(=O)c3cc(OC)c(OC)c(OC)c3)c[nH]c2n1`, the remaining at 0.5 h, 1 µM in series [12] stood at 88.3%. Moreover, the pIC50 in the series on MKN-45 is 7.80; in the series with KB it was 7.70. In addition, the values for the solubility at 24 h in [9] and in series [10] were below 1 µg/mL and below 2 µg/mL, respectively.

As for `COc1ccn2c(C(=O)c3cc(OC)c(OC)c(OC)c3)cnc2c1`, the pIC50 in the series on MKN-45 is 6.14; in the series with KB it was 6.11.

On to `COc1ccc2c(C(=O)c3cc(OC)c(OC)c(OC)c3)c[nH]c2c1`, for which the half-life in series [2] was 2.8 h. In addition, the remaining at 0.5 h, 1 µM in series [12] was 54.1%. Moreover, in series [3], the Cmax (usually the peak of the concentration-time curve) is 179 ng/mL. In the series with Rattus norvegicus [4], this compound had a t1/2 of 0.9 h. For the same compound, the results for the AUC (in [5]; in the series on Rattus norvegicus [7]) were 1310 ng·h/mL and 2712 ng·h/mL, respectively. The compound also had a Vdss in the series with Rattus norvegicus [6] of 1.6 L/kg. For the same compound, the Tmax in [8] is 4 h. Further, the pIC50 with MKN-45 is 8.30; with KB, 8.22. Moreover, the solubility at 24 h in [9] was 0.61 µg/mL (≈ 1.79 µM); in series [10] it was 0.9 µg/mL (≈ 2.64 µM). The same compound registered a bioavailability in series [11] of 9.7%.

In the case of `COc1cc(C(=O)c2c[nH]c3nc(C)ccc23)cc(OC)c1OC.Cl`, the results for the solubility at 24 h in [9] and in [10] were 79.6 µg/mL and 91.3 µg/mL, respectively.

For `COc1ncc2c(C(=O)c3cc(OC)c(OC)c(OC)c3)c[nH]c2n1`, the pIC50 was 7.10 in the series on MKN-45 and 6.55 in the series on KB.

Take `COc1ccn2c(C(=O)c3cc(OC)c(OC)c(OC)c3)c(C)cc2c1`: the results for the pIC50 with MKN-45 and in the series on KB were 6.45 and below 6.00, respectively.

For `COc1ccc2c(C(=O)c3cc(OC)c(OC)c(OC)c3)ccn2c1`, the negative logarithm of the IC50 (pIC50) is 7.10 with MKN-45 and 6.55 in the series on KB.

For `COc1ccc2c(C(=O)c3cc(OC)c(OC)c(OC)c3)cnn2n1`, the remaining at 0.5 h, 1 µM in series [12] turned out to be 99.6%. The pIC50 in the series on MKN-45 and in the series with KB was below 6.00 in each case.
